What was measured:
[1] = biological target: Endonuclease 8-like 1 (Homo sapiens) (UniProt Q96FI4); conditions: Hit No;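 further: fluorescence at 594 nm from quenched duplex DNA oligonucleotides released by NEIL1 cleavage and strand separation, reported as reduction of this enzyme activity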
Description: Inhibition of NEIL1 by quantifying inhibition of NEIL1-mediated cleavage and dissociation of quenched duplex DNA oligonucleotides, measured as fluorescence at 594 nm.

[2] = biological target: Methyl-CpG-binding domain protein 4 (Homo sapiens) (UniProt O95243); conditions: Hit No;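 further: MBD4 activity read as fluorescence at 594 nm from cleavage and release of a quenched duplex DNA oligonucleotide, with APE1 coupled to incise the strand and raise turnover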
Description: Inhibition of MBD4 by quantifying inhibition of MBD4-mediated cleavage and dissociation of quenched duplex DNA oligonucleotides, measured as fluorescence at 594 nm. To generate a functional strand incision and increase turn-over this assay is coupled to APE1.

[3] = biological target: T1, Single-strand selective monofunctional uracil DNA glycosylase (Homo sapiens) (UniProt Q53HV7); conditions: Hit No;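 further: enzymatic SMUG1 assay coupled with APE1, reading fluorescence at 594 nm released when a quenched double-stranded DNA oligonucleotide substrate is cleaved and separated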
T1 sequence (whole entry): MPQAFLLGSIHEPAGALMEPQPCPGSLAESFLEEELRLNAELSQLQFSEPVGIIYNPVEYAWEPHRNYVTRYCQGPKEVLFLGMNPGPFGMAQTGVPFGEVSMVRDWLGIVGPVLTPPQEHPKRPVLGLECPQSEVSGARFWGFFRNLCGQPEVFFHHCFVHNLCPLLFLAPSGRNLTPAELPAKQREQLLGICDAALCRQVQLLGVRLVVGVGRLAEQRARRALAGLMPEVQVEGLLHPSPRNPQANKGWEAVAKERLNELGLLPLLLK
Description: Inhibition of SMUG1 by quantifying inhibition of SMUG1-mediated cleavage and dissociation of quenched duplex DNA oligonucleotides, measured as fluorescence at 594 nm. To generate a functional strand incision and increase turn-over this assay is coupled to APE1.

[4] = biological target: Uracil-DNA glycosylase (Homo sapiens) (UniProt P13051); conditions: Hit No;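 further: UNG excision on a quenched double-stranded DNA oligo probe, with APE1 added for strand incision and turnover, read as fluorescence at 594 nm as strands separate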
Description: Inhibition of UNG by quantifying inhibition of UNG-mediated cleavage and dissociation of quenched duplex DNA oligonucleotides, measured as fluorescence at 594 nm. To generate a functional strand incision and increase turn-over this assay is coupled to APE1.

[5] = biological target: G/T mismatch-specific thymine DNA glycosylase (Homo sapiens) (UniProt Q13569); conditions: Hit No;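 further: human TDG cleavage of quenched duplex DNA oligonucleotides coupled to APE1, strand release read as fluorescence at 594 nm, inhibition of TDG activity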
Description: Inhibition of TDG by quantifying inhibition of TDG-mediated cleavage and dissociation of quenched duplex DNA oligonucleotides, measured as fluorescence at 594 nm. To generate a functional strand incision and increase turn-over this assay is coupled to APE1.

[6] = biological target: T2, Endonuclease 8-like 2 (Homo sapiens) (UniProt Q969S2);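 further: fluorescence at 594 nm reports NEIL2 cutting and release of a quenched double-stranded DNA oligo substrate, reduced signal read as inhibition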
T2 sequence (whole entry): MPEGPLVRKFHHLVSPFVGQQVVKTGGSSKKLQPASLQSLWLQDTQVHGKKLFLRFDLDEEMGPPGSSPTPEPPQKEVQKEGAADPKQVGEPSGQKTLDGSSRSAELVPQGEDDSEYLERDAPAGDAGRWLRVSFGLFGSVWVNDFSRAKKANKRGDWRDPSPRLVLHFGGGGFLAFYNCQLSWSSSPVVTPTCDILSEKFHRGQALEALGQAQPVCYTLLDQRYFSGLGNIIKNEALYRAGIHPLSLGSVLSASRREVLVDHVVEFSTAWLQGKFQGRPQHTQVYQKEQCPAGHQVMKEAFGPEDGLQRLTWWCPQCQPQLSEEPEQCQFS
Description: Inhibition of NEIL2 by quantifying inhibition of NEIL2-mediated cleavage and dissociation of quenched duplex DNA oligonucleotides, measured as fluorescence at 594 nm.

[7] = biological target: N-glycosylase/DNA lyase (Homo sapiens) (UniProt O15527); conditions: Hit No;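 further: OGG1 cleavage of a quenched duplex DNA oligonucleotide, coupled to APE1 for strand incision, read as fluorescence at 594 nm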
Description: Inhibition of OGG1 by quantifying inhibition of OGG1-mediated cleavage and dissociation of quenched duplex DNA oligonucleotides, measured as fluorescence at 594 nm. To generate a functional strand incision and increase turn-over this assay is coupled to APE1.

[8] = biological target: T3, Adenine DNA glycosylase (Homo sapiens) (UniProt Q9UIF7); conditions: Hit No;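 further: human MUTYH activity read as 594 nm fluorescence from cleavage and release of a quenched DNA duplex, coupled with APE1 for strand incision, lower signal meaning inhibition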
T3 sequence (whole entry): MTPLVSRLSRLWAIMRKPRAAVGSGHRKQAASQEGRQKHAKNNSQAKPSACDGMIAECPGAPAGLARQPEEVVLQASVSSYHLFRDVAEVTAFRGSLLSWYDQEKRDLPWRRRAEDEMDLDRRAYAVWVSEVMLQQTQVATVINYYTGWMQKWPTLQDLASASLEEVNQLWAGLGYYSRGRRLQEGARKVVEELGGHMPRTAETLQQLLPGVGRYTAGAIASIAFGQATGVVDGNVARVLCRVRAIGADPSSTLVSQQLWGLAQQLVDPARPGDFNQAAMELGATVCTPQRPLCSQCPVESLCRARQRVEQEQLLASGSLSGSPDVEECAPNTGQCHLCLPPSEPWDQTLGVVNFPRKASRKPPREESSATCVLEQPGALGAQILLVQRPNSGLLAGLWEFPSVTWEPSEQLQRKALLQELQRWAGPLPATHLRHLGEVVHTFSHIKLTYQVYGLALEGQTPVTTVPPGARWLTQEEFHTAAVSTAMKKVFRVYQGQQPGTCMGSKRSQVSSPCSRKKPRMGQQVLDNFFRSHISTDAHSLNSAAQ
Description: Inhibition of MUTYH by quantifying inhibition of MUTYH-mediated cleavage and dissociation of quenched duplex DNA oligonucleotides, measured as fluorescence at 594 nm. To generate a functional strand incision and increase turn-over this assay is coupled to APE1.

[9] = Compound Concentration 10.0 uM, Hit No
[10] = Compound Concentration 1.0 uM, Hit No

Chain of N-glycosylase/DNA lyase (Homo sapiens) (O15527 whole entry): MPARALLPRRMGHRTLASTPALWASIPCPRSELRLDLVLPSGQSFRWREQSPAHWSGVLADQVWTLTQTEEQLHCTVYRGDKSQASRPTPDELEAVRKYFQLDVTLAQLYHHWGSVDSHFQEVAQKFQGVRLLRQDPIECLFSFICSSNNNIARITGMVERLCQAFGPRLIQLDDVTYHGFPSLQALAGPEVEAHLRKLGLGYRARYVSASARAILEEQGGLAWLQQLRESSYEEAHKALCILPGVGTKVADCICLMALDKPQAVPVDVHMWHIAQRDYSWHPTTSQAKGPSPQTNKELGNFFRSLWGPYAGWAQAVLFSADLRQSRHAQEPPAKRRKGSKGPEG
Chain of G/T mismatch-specific thymine DNA glycosylase (Homo sapiens) (Q13569 whole entry): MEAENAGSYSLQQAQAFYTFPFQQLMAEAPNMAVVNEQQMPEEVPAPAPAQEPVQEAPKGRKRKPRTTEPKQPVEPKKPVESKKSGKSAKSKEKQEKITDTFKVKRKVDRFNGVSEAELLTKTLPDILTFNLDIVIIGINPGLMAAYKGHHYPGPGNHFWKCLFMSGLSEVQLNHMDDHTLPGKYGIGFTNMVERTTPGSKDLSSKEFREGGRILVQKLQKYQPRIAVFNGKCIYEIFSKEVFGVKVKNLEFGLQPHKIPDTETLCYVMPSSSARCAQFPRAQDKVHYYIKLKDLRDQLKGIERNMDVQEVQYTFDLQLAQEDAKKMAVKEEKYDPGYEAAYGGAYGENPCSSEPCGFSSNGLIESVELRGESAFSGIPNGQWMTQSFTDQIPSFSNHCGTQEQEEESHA
Chain of Uracil-DNA glycosylase (Homo sapiens) (P13051 whole entry): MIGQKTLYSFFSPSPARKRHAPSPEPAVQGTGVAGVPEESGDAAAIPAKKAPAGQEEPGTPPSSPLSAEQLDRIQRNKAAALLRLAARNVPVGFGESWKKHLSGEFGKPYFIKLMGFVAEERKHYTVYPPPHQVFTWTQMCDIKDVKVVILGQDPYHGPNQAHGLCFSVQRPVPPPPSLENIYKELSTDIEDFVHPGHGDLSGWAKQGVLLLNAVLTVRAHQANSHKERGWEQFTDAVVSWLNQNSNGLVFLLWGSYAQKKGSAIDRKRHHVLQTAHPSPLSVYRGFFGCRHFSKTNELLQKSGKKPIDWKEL
Chain of Endonuclease 8-like 1 (Homo sapiens) (Q96FI4 whole entry, the tested form may be a part): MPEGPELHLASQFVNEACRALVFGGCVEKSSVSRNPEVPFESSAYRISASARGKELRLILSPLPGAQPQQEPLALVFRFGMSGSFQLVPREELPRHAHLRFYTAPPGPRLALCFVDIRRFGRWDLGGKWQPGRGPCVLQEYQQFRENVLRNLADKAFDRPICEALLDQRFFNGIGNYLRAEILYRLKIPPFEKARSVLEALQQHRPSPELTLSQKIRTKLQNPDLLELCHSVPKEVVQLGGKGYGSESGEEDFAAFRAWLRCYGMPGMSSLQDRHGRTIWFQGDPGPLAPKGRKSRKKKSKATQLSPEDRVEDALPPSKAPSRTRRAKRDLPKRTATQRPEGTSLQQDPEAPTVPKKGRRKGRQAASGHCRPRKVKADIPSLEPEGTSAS
Chain of Methyl-CpG-binding domain protein 4 (Homo sapiens) (O95243 whole entry, the tested form may be a part): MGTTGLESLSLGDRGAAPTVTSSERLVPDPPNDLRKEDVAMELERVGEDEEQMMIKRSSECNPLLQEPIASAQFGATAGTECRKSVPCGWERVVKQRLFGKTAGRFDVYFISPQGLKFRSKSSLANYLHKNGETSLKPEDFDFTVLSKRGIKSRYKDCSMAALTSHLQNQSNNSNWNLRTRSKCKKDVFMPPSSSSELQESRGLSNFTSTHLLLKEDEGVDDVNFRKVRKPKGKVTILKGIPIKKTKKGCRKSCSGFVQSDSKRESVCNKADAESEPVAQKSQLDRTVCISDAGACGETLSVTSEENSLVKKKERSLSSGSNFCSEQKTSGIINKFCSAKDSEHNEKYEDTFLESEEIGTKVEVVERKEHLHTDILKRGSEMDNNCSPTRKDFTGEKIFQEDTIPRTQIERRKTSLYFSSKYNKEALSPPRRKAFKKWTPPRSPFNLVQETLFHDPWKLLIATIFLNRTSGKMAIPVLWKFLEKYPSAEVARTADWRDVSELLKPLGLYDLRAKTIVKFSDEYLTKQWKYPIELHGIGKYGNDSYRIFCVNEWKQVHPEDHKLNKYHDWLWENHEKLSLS

SMILES | inhibition ([1]; Compound Concentration 10.0 uM) | inhibition ([2]; Compound Concentration 10.0 uM) | inhibition ([3]; Compound Concentration 10.0 uM) | inhibition ([4]; Compound Concentration 10.0 uM) | inhibition ([5]; Compound Concentration 10.0 uM) | inhibition [6, 9] | inhibition ([7]; Compound Concentration 10.0 uM) | inhibition ([8]; Compound Concentration 10.0 uM) | inhibition ([1]; Compound Concentration 1.0 uM) | inhibition ([2]; Compound Concentration 1.0 uM) | inhibition ([3]; Compound Concentration 1.0 uM) | inhibition ([4]; Compound Concentration 1.0 uM) | inhibition ([5]; Compound Concentration 1.0 uM) | inhibition [6, 10] | inhibition ([7]; Compound Concentration 1.0 uM) | inhibition ([8]; Compound Concentration 1.0 uM) | inhibition ([6]; Compound Concentration 10.0 uM, Hit Yes)
CC[C@H](CO)Nc1nc(NCc2ccccc2)c2ncn(C(C)C)c2n1 | 6.48% | -1.52% | -5.13% | 0.726% | 38.4% | -5.42% | -9.3% | -2.91% | – | – | – | – | – | – | – | – | –
O=S(=O)(Nc1ccc(C(O)(C(F)(F)F)C(F)(F)F)cc1)c1cccs1 | -9.23% | 63.6% | 19.9% | 4.47% | 99.8% | -2.02% | 9.18% | 12.6% | – | – | – | – | – | – | – | – | –
NS(=O)(=O)c1cc(NC(=O)Cc2ccccc2)ccc1Oc1cccc(Cl)c1 | -8.47% | 54.5% | 25.9% | 6.44% | 87.5% | -2.53% | 16.9% | -0.214% | – | – | – | – | – | – | – | – | –
CCN(Cc1ccc(Cl)cc1)c1ncc(C(=O)NCCCN2CCCC2=O)c(NC2CCCC2)n1 | -2.37% | -8.97% | 17.5% | 8.58% | 63.4% | -8.65% | -2.04% | 3.34% | – | – | – | – | – | – | – | – | –
O=C(Cc1ccccc1)Nc1nnc(N2CC[C@@H]3[C@H]2CN3c2cccnn2)s1 | – | – | – | – | – | – | – | – | 0.316% | 66% | 9.42% | 9.87% | 43.7% | -8.65% | 3.62% | 7.76% | –
O=C(Nc1ccc(C(O)(C(F)(F)F)C(F)(F)F)cc1)c1ccc(C(F)(F)F)cc1 | -5.59% | 54.8% | 23.5% | 11.1% | 98% | -7.89% | 30.3% | 3.77% | – | – | – | – | – | – | – | – | –
CCC(C)N(C)C(=O)c1cc2ccccc2c(-c2ccccc2Cl)n1 (configuration not stated) | -9.53% | 67% | 22.8% | 7.72% | 99.2% | 3.59% | 15.1% | 1.15% | – | – | – | – | – | – | – | – | –
COc1cc(-c2cn([C@H]3CCc4c(F)cccc4N(CC(F)(F)F)C3=O)nn2)ccc1-n1cnc(C)c1 | -9.83% | 40% | 19.7% | 4.8% | 47.4% | 11.2% | 6.38% | 0.879% | – | – | – | – | – | – | – | – | –
CC(=O)Nc1nc(C)c(S(=O)(=O)Nc2ccc(C(O)(C(F)(F)F)C(F)(F)F)cc2)s1 | 1.83% | 60.1% | 23% | 5.29% | 98.2% | 2.83% | 9.77% | 13.4% | – | – | – | – | – | – | – | – | –
Nc1nc(NCc2ccccc2)nc(-c2ccccc2CO)n1 | -7.11% | 61.2% | -2.01% | 2.12% | 52% | 5.12% | 4.21% | -3% | – | – | – | – | – | – | – | – | –
CNCc1ccccc1-c1csc([C@@H](C)Nc2nc(C)nc3cc(OC)c(OC)cc23)c1 | -5.89% | 8.88% | 5.31% | 14.2% | 66.2% | – | 16.5% | 19.2% | – | – | – | – | – | – | – | – | 38%
N#CN1CC[C@@H](C(=O)Nc2nc3c(s2)CN(C(=O)CN=[N+]=[N-])CC3)C1 | 6.22% | 54.3% | 2.3% | 4.95% | 50.9% | -7.63% | 3.62% | -2.56% | – | – | – | – | – | – | – | – | –
O=C(N[C@H]1CCCCC/C=C\C2C[C@@]2(C(=O)O)NC(=O)[C@@H]2C[C@@H](Oc3ccncc3)CN2C1=O)OC1CCCC1 (some centres not stated) | 2.74% | 61.8% | 20% | 4.34% | 61.5% | -0.999% | 25.2% | 1.97% | – | – | – | – | – | – | – | – | –
OCCOCCN1CCN(C(c2ccccc2)c2ccc(Cl)cc2)CC1 (configuration not stated) | 4.39% | 1.54% | 2.34% | -3.83% | 3.31% | -2.98% | -2.03% | -3.56% | – | – | – | – | – | – | – | – | –
NC1(c2ccc(-c3nc4ccn5c(=O)[nH]nc5c4cc3-c3ccccc3)cc2)CCC1 | 17.6% | 37.9% | 29.1% | 17.3% | 71.2% | -9.46% | 10.8% | 56.1% | – | – | – | – | – | – | – | – | –
CN1CCN(c2cnc3c(C4CCN(C(=O)c5ccc(OC(F)(F)F)cc5N)CC4)ncnc3c2)CC1 | -2.58% | 22.6% | 11.7% | 5.02% | 43.6% | -8.19% | -1.54% | 2.58% | – | – | – | – | – | – | – | – | –
CNC(=O)Nc1ccc2c(c1)[C@@]1(CC2)OC(=O)N(CC(=O)N(Cc2ccc(F)cc2)[C@@H](C)C(F)(F)F)C1=O | – | – | – | – | – | – | – | – | -6.35% | 67.4% | 22.4% | 4.4% | 98.8% | -2.53% | -0.951% | 0.0592% | –
COc1cc(Nc2ncc3c(n2)-c2ccc(Cl)cc2C(c2c(F)cccc2OC)=NC3)ccc1C(=O)O | – | – | – | – | – | – | – | – | -3.03% | 19.9% | 19.5% | -1.28% | 47.7% | -9.46% | 4.44% | -7.52% | –
CC(=O)c1c(C)c2cnc(Nc3ccc(N4CCNCC4)cn3)nc2n(C2CCCC2)c1=O | – | – | – | – | – | – | – | – | 8.59% | -1.7% | 19.2% | 3.08% | 39.5% | 2.12% | 4.49% | 37.5% | –
